# Values quoted from earlier work as cited in patent US7288270B1, “Therapeutic composition for the prevention and treatment of mucositis and mucosal disorders” (priority 2002, dated 2007).
# Experiments:
# [1] = system: Gram negative bacteria that tend to colonize the oral cavity; conditions: patients undergoing radiation therapy
# [2] = system: mucositis; conditions: human, in vivo
# [3] = system: eczema; conditions: ointment, topical
# [4] = system: Herpes virus; conditions: in test tubes
# [5] = system: mucositis; conditions: subsequent randomized and controlled studies
# [6] = system: Staphylococcus aureus; conditions: in the solvent dimethyl sulfoxide; one range given for three species
# [7] = system: Enterococcus faecalis; conditions: in the solvent dimethyl sulfoxide; one range given for three species
# [8] = system: Pseudomonas aeruginosa; conditions: in the solvent dimethyl sulfoxide; one range given for three species
# [9] = system: dermatophytes (Trichophyton mentagrophytes, Trichophyton tonsurans, Trichophyton rubrum, Epidermophyton floccosum, Microsporum gypseum)
# [10] = system: HSV-1; conditions: dose-dependent, reversible manner
# [11] = system: HSV-2; conditions: dose-dependent, reversible manner
smiles,measurement,setting,value
"[H]/N=C(\N/C(=N/[H])NCCCCCCNC(=N)NC(=N)Nc1ccc(Cl)cc1)Nc1ccc(Cl)cc1 [chlorhexidine, Chlorhexidine]",effectiveness against Gram negative bacteria of the oral cavity,[1],relatively ineffective
same,incidence of mucositis,[2],higher incidence of mucositis
CC1(C)[C@@H](O)CC[C@]2(C)[C@H]3C(=O)C=C4[C@@H]5C[C@@](C)(C(=O)O)CC[C@]5(C)CC[C@@]4(C)[C@]3(C)CC[C@@H]12 [glycyrrhetinic acid],improvement of eczema compared with hydrocortisone,[3],as effective as hydrocortisone
CC1(C)[C@@H](O[C@H]2O[C@H](C(=O)O)[C@@H](O)[C@H](O)[C@H]2O[C@@H]2O[C@H](C(=O)O)[C@@H](O)[C@H](O)[C@H]2O)CC[C@]2(C)[C@H]3C(=O)C=C4[C@@H]5C[C@@](C)(C(=O)O)CC[C@]5(C)CC[C@@]4(C)[C@]3(C)CC[C@@H]12 [glycyrrhizic acid],inhibition of herpes virus,[4],inhibited
CC(=O)CCCCn1c(=O)c2c(ncn2C)n(C)c1=O [pentoxifylline],benefit in mucositis,[5],failed to demonstrate any benefit
"Oc1ccc(/C=C/c2cc(O)cc(O)c2)cc1 [resveratrol, 3,5,4′-trihdyroxystilbene]",concentration at which growth was inhibited,[6],171 to 342 µg/mL
same,concentration at which growth was inhibited,[7],171 to 342 µg/mL
same,concentration at which growth was inhibited,[8],171 to 342 µg/mL
same,concentration at which growth of dermatophytes was inhibited,[9],25 to 50 µg/mL
same,inhibition of HSV-1 replication,[10],inhibit
same,inhibition of HSV-2 replication,[11],inhibit
